Where two headings read alike, the source gives them in different places.
Columns and labels:
[1] = molecular target: T1, wild-type human cardiac sodium channel, hNav1.5 (Homo sapiens, UniProt Q14524); assay: Late INa screening assay (QPatch whole cell patch clamp, Tefluthrin-induced late current); format: cell-based; conditions: 1 uM; HEK293 hNav1.5; percent block of late INa
Summary of the method: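 HEK293 cells stably expressing hNav1.5 without beta subunits were whole-cell patch clamped at 23-25 °C, stepping from −120 to −20 mV for 250 ms at 0.1 Hz. Late current (240–265 ms) was induced with 10 μM Tefluthrin, and compounds were added typically at 0.3 or 1 μM. Percent block was taken against 0 Na baseline with rundown correction.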

[2] = molecular target: T1, wild-type human cardiac sodium channel, hNav1.5; assay: Peak INa screening assay (tonic block and use-dependent block); format: cell-based
Summary of the method: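 HEK293 cells stably expressing hNav1.5 (no beta subunits), automated whole-cell patch clamp at 23-25° C, 40 mM Na+ bath (choline substitution), pH 7.35. Compound at 1 or 3 μM, added twice then 200 s equilibration; tonic block by steps to −20 mV from −100 mV at 0.1 Hz, use-dependent block at pulse 50 of a 3 Hz train, rundown-corrected versus compound-free.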

[3] = tonic block of Peak INa, 0.1 Hz, holding -100 mV, read-out: Peak TB 3 uM
[4] = use-dependent block of Peak INa, 3 Hz, pulse 50, read-out: Peak UDB 3 Hz 3 uM

T1 sequence (Q14524 whole entry): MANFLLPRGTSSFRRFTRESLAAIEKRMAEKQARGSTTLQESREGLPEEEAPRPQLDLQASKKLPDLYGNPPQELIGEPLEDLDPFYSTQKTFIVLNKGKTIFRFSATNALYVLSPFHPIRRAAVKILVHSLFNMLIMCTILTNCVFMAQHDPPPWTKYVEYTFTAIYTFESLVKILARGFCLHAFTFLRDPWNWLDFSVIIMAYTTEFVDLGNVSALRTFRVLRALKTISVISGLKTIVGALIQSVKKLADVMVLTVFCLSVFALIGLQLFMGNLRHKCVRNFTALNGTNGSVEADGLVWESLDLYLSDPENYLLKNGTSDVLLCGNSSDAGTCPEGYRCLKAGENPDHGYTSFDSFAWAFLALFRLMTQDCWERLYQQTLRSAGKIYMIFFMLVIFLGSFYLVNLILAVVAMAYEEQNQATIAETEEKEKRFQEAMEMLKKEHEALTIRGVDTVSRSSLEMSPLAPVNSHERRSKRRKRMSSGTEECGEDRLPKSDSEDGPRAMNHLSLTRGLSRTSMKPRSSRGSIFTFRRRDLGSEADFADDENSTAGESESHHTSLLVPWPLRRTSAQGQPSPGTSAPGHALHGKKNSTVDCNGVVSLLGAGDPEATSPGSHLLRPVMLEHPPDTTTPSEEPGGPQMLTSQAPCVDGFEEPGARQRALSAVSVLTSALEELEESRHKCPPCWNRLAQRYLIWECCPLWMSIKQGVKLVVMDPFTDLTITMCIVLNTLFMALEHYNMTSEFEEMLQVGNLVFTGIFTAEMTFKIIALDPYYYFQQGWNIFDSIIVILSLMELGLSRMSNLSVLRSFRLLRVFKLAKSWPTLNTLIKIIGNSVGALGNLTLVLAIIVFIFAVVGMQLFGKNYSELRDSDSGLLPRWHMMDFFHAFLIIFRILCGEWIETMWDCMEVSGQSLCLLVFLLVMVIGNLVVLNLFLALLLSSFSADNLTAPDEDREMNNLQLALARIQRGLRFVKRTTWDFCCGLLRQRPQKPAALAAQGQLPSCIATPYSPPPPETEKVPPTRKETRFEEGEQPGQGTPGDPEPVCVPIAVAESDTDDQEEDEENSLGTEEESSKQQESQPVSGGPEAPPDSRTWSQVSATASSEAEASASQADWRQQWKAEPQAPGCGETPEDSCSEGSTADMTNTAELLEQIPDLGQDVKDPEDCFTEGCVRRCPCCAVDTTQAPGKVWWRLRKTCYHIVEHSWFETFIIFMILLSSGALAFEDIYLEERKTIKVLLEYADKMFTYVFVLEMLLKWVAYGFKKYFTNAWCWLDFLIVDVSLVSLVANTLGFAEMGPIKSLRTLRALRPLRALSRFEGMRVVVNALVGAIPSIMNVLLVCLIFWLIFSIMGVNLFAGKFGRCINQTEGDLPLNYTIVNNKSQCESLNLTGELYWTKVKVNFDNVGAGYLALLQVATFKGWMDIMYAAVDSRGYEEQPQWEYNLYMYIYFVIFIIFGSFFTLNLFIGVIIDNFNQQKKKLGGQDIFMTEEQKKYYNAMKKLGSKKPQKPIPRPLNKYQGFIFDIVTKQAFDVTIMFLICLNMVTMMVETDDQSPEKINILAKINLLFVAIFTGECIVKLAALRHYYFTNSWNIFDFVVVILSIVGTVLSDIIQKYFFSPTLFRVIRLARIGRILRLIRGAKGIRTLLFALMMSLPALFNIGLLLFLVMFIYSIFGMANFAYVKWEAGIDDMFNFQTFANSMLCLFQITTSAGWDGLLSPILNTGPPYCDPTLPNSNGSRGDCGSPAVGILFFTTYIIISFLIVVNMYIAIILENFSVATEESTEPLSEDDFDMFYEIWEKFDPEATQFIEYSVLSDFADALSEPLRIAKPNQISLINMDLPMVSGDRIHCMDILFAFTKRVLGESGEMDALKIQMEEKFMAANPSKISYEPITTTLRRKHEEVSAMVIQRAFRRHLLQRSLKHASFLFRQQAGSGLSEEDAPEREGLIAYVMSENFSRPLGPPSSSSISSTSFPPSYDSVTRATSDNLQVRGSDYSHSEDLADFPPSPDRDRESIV

Fc1cc(-c2ccc(OC(F)(F)F)cc2)cc2c(OCc3ncccn3)noc12 [Example 17, 7-fluoro-3-(pyrimidin-2-ylmethoxy)-5-(4-(trifluoromethoxy)phenyl)benzo[d]isoxazole]
inhibition at 1 µM [1]: 45.9%
inhibition at 3 µM [2, 3]: 28.9%
inhibition at 3 µM [2, 4]: < 5%

Cc1cc(-c2cc(C)c3onc(OCc4ncccn4)c3c2)ccc1OC(F)(F)F [Example 18, 7-methyl-5-(3-methyl-4-(trifluoromethoxy)phenyl)-3-(pyrimidin-2-ylmethoxy)benzo[d]isoxazole]
inhibition at 1 µM [1]: 38.2%
inhibition at 3 µM [2, 3]: 27.7%
inhibition at 3 µM [2, 4]: 5.2%

FC(F)(F)COc1ccc(-c2ccc3onc(OCc4ncccn4)c3c2)cn1 [Example 21, 3-(pyrimidin-2-ylmethoxy)-5-(6-(2,2,2-trifluoroethoxy)pyridin-3-yl)benzo[d]isoxazole]
inhibition at 1 µM [1]: 48.8%
inhibition at 3 µM [2, 3]: 13%
inhibition at 3 µM [2, 4]: < 5%

COc1cc(-c2ccc(OC(F)(F)F)c(C)c2)cc2c(OCc3ncccn3)noc12 [Example 23, 7-methoxy-5-(3-methyl-4-(trifluoromethoxy)phenyl)-3-(pyrimidin-2-ylmethoxy)benzo[d]isoxazole]
inhibition at 1 µM [1]: 45.3%
inhibition at 3 µM [2, 4]: < 5%

COc1cc(-c2ccc(C(F)(F)F)cc2F)cc2c(OCc3ncccn3)noc12 [Example 24, 5-(2-fluoro-4-(trifluoromethyl)phenyl)-7-methoxy-3-(pyrimidin-2-ylmethoxy)benzo[d]isoxazole]
inhibition at 1 µM [1]: 36%
inhibition at 3 µM [2, 3]: 10%
inhibition at 3 µM [2, 4]: < 5%

COc1cc(-c2ccc(OC(F)(F)F)cc2C)cc2c(OCc3ncccn3)noc12 [Example 25, 7-methoxy-5-(2-methyl-4-(trifluoromethoxy)phenyl)-3-(pyrimidin-2-ylmethoxy)benzo[d]isoxazole]
inhibition at 1 µM [1]: 41.3%
inhibition at 3 µM [2, 3]: 12%
inhibition at 3 µM [2, 4]: < 5%

Cc1cc2onc(OCc3ncccn3)c2cc1-c1ccc(OC(F)(F)F)cc1 [Example 26, 6-methyl-3-(pyrimidin-2-ylmethoxy)-5-(4-(trifluoromethoxy)phenyl)benzo[d]isoxazole]
inhibition at 1 µM [1]: 49.6%
inhibition at 3 µM [2, 3]: 27.8%
inhibition at 3 µM [2, 4]: < 5%

Cc1cc(-c2cc3c(OCc4ncccn4)noc3cc2C)ccc1OC(F)(F)F [Example 27, 6-methyl-5-(3-methyl-4-(trifluoromethoxy)phenyl)-3-(pyrimidin-2-ylmethoxy)benzo[d]isoxazole]
inhibition at 1 µM [1]: 35.1%
inhibition at 3 µM [2, 3]: 20.8%
inhibition at 3 µM [2, 4]: < 5%

Cc1cc(OC(F)(F)F)ccc1-c1cc2c(OCc3ncccn3)noc2cc1C [Example 29, 6-methyl-5-(2-methyl-4-(trifluoromethoxy)phenyl)-3-(pyrimidin-2-ylmethoxy)benzo[d]isoxazole]
inhibition at 1 µM [1]: 46.4%
inhibition at 3 µM [2, 3]: 8.1%
inhibition at 3 µM [2, 4]: < 5%

FC1(F)Oc2ccc(-c3ccc4onc(OCc5ncccn5)c4c3)cc2O1 [Example 30, 5-(2,2-difluorobenzo[d][1,3]dioxol-5-yl)-3-(pyrimidin-2-ylmethoxy)benzo[d]isoxazole]
inhibition at 1 µM [1]: 42.5%
inhibition at 3 µM [2, 3]: 15.2%
inhibition at 3 µM [2, 4]: < 5%

Fc1cc2onc(OCc3ncccn3)c2cc1-c1ccc(OC(F)(F)F)cc1 [Example 31, 6-fluoro-3-(pyrimidin-2-ylmethoxy)-5-(4-(trifluoromethoxy)phenyl)benzo[d]isoxazole]
inhibition at 1 µM [1]: 43.9%
inhibition at 3 µM [2, 3]: 18.5%
inhibition at 3 µM [2, 4]: < 5%

Fc1cc(C(F)(F)F)ccc1-c1cc2c(OCc3ncccn3)noc2cc1F [Example 33, 6-fluoro-5-(2-fluoro-4-(trifluoromethyl)phenyl)-3-(pyrimidin-2-ylmethoxy)benzo[d]isoxazole]
inhibition at 1 µM [1]: 35.5%
inhibition at 3 µM [2, 3]: 20.9%
inhibition at 3 µM [2, 4]: 5.1%

Fc1cc2onc(OCc3ncccn3)c2cc1-c1ccc2c(c1)OC(F)(F)O2 [Example 35, 5-(2,2-difluorobenzo[d][1,3]dioxol-5-yl)-6-fluoro-3-(pyrimidin-2-ylmethoxy)benzo[d]isoxazole]
inhibition at 1 µM [1]: 33.6%
inhibition at 3 µM [2, 3]: 17.4%
inhibition at 3 µM [2, 4]: < 5%

Cn1cc(COc2noc3ccc(-c4ccc(OC(F)(F)F)cc4)cc23)nn1 [Example 44]
inhibition at 1 µM [1]: 48.2%
inhibition at 3 µM [2, 3]: 29.9%
inhibition at 3 µM [2, 4]: 10.4%

FC(F)(F)Oc1ccc(-c2ccc3onc(OCc4cn[nH]c4)c3c2)cc1 [Example 45, 3-((1H-pyrazol-4-yl)methoxy)-5-(4-(trifluoromethoxy)phenyl)benzo[d]isoxazole]
inhibition at 1 µM [1]: 43.6%
inhibition at 3 µM [2, 3]: 16.8%
inhibition at 3 µM [2, 4]: 15.1%

CC(C)n1ccnc1COc1noc2ccc(-c3ccc(OC(F)(F)F)cc3)cc12 [Example 48, 3-((1-isopropyl-1H-imidazol-2-yl)methoxy)-5-(4-(trifluoromethoxy)phenyl)benzo[d]isoxazole]
inhibition at 1 µM [1]: 51.2%
inhibition at 3 µM [2, 3]: 9.1%
inhibition at 3 µM [2, 4]: 5.7%

CCn1cncc1COc1noc2ccc(-c3ccc(OC(F)(F)F)cc3)cc12 [Example 49, 3-((1-ethyl-1H-imidazol-5-yl)methoxy)-5-(4-(trifluoromethoxy)phenyl)benzo[d]isoxazole]
inhibition at 1 µM [1]: 39.6%
inhibition at 3 µM [2, 3]: 16.9%
inhibition at 3 µM [2, 4]: < 5%

Cn1cncc1COc1noc2ccc(-c3ccc(OC(F)(F)F)cc3)cc12 [Example 50, 3-((1-methyl-1H-imidazol-5-yl)methoxy)-5-(4-(trifluoromethoxy)phenyl)benzo[d]isoxazole]
inhibition at 1 µM [1]: 32.5%
inhibition at 3 µM [2, 4]: < 5%

FC(F)(F)Oc1ccc(-c2ccc3onc(OCc4cn5ccccc5n4)c3c2)cc1 [Example 51, 3-(imidazo[1,2-a]pyridin-2-ylmethoxy)-5-(4-(trifluoromethoxy)phenyl)benzo[d]isoxazole]
inhibition at 1 µM [1]: 38.8%
inhibition at 3 µM [2, 3]: 12.3%
inhibition at 3 µM [2, 4]: 7.7%

O=C1CC[C@H](COc2noc3ccc(-c4ccc(OC(F)(F)F)cc4)cc23)N1 [Example 61, (R)-5-(((5-(4-(trifluoromethoxy)phenyl)benzo[d]isoxazol-3-yl)oxy)methyl)pyrrolidin-2-one]
inhibition at 1 µM [1]: 38.2%
inhibition at 3 µM [2, 3]: 11.8%
inhibition at 3 µM [2, 4]: 6.6%

FC(F)(F)Oc1ccc(-c2ccc3onc(OCCn4cnnc4)c3c2)cc1 [Example 63, 3-(2-(4H-1,2,4-triazol-4-yl)ethoxy)-5-(4-(trifluoromethoxy)phenyl)benzo[d]isoxazole]
inhibition at 1 µM [1]: 44.1%
inhibition at 3 µM [2, 3]: 39%
inhibition at 3 µM [2, 4]: 13.3%

FC(F)(F)Oc1ccc(-c2ccc3onc(OCc4nccn4-c4ccccc4)c3c2)cc1 [Example 64, 3-((1-phenyl-1H-imidazol-2-yl)methoxy)-5-(4-(trifluoromethoxy)phenyl)benzo[d]isoxazole]
inhibition at 1 µM [1]: 30.7%
inhibition at 3 µM [2, 3]: 10.1%
inhibition at 3 µM [2, 4]: < 5%

Cc1nc(C)n(CCOc2noc3ccc(-c4ccc(OC(F)(F)F)cc4)cc23)n1 [Example 76, 3-(2-(3,5-dimethyl-1H-1,2,4-triazol-1-yl)ethoxy)-5-(4-(trifluoromethoxy)phenyl)benzo[d]isoxazole]
inhibition at 1 µM [1]: 55.2%
inhibition at 3 µM [2, 3]: 49.9%
inhibition at 3 µM [2, 4]: < 5%

CC(COc1noc2ccc(-c3ccc(OC(F)(F)F)cc3)cc12)n1cncn1 (stereo not shown) [Example 77, 3-(2-(1H-1,2,4-triazol-1-yl)propoxy)-5-(4-(trifluoromethoxy)phenyl)benzo[d]isoxazole]
inhibition at 1 µM [1]: 49.2%
inhibition at 3 µM [2, 3]: 34.6%
inhibition at 3 µM [2, 4]: 8.3%

FC(F)(F)Oc1ccc(-c2ccc3onc(OCCN4CCOCC4)c3c2)cc1 [Example 78, 3-(2-morpholinoethoxy)-5-(4-(trifluoromethoxy)phenyl)benzo[d]isoxazole]
inhibition at 1 µM [1]: 47.1%
inhibition at 3 µM [2, 3]: 38.7%
inhibition at 3 µM [2, 4]: 19.5%

Cc1nc(C)n(C(C)COc2noc3ccc(-c4ccc(OC(F)(F)F)cc4)cc23)n1 (stereo not shown) [Example 79, 3-(2-(3,5-dimethyl-1H-1,2,4-triazol-1-yl)propoxy)-5-(4-(trifluoromethoxy)phenyl)benzo[d]isoxazole]
inhibition at 1 µM [1]: 46.1%
inhibition at 3 µM [2, 3]: 26%
inhibition at 3 µM [2, 4]: < 5%

O=C1CCCN1CCOc1noc2c(F)cc(-c3ccc(OC(F)(F)F)cc3)cc12 [Example 80, 1-(2-((7-fluoro-5-(4-(trifluoromethoxy)phenyl)benzo[d]isoxazol-3-yl)oxy)ethyl)pyrrolidin-2-one]
inhibition at 1 µM [1]: 35.6%
inhibition at 3 µM [2, 3]: 17.3%
inhibition at 3 µM [2, 4]: 13.7%

COc1ccnc(COc2noc3ccc(-c4ccc(OC(F)(F)F)cc4)cc23)c1 [Example 81, 3-((4-methoxypyridin-2-yl)methoxy)-5-(4-(trifluoromethoxy)phenyl)benzo[d]isoxazole]
inhibition at 1 µM [1]: 33.7%
inhibition at 3 µM [2, 3]: 23.5%
inhibition at 3 µM [2, 4]: < 5%

Cc1cc(-c2ccc(OC(F)(F)F)cc2)cc2c(OCCn3cncn3)noc12 [Example 89, 3-(2-(1H-1,2,4-triazol-1-yl)ethoxy)-7-methyl-5-(4-(trifluoromethoxy)phenyl)benzo[d]isoxazole]
inhibition at 1 µM [1]: 33.2%
inhibition at 3 µM [2, 3]: 5.7%
inhibition at 3 µM [2, 4]: < 5%

Cc1cc(-c2ccc(OC(F)(F)F)cc2)cc2c(OCc3ncco3)noc12 [Example 91, 7-methyl-3-(oxazol-2-ylmethoxy)-5-(4-(trifluoromethoxy)phenyl)benzo[d]isoxazole]
inhibition at 1 µM [1]: 53%
inhibition at 3 µM [2, 3]: 33%
inhibition at 3 µM [2, 4]: < 5%

Source: patent US9416115B2, “Fused heterocyclic compounds as ion channel modulators” (Gilead Sciences, Inc., priority 2013, dated 2016)
